According to patent publication US10947201B2, “Certain chemical entities, compositions, and methods” (NEUPHARMA, INC., priority 2015, dated 2021):

Assays:
[1] = tested on: H3255 cells; assay: MTT cell growth inhibition assay, H3255; assay type: cell-based; conditions: Homo sapiens, NCI-H3255, H3255 cells (L858R mutation), 72 h
Description: (§1) Inhibition of cell growth by compounds was measured using MTT assay (Mosmann, T., Journal of Immunological Methods, 1983, 65, 55-63). Tumor cell lines were purchased from ATCC (American Type Culture Collection, Manassas, Va.). All cell lines were maintained in RPMI 1640 (Hyclone) supplemented with 10% fetal bovine serum (FBS, Hyclone), glutamine (2 mM, Hyclone), and antibiotics (penicillin 100 U/mL and streptomycin 50 μg/mL) at 37° C. in a humidified atmosphere of 5% CO2 in air. Taxol (as a positive control, Sigma) and compounds were dissolved in DMSO (Sigma), and the final concentration of DMSO in the medium was 1%. Tumor cells were plated in 96-well plates at densities of about 4000 cells/well of a 96-well plate and allowed to adhere/grow for 24 h. They were then treated with various concentrations of drug for 72 h. 3-(4,5-Dimethylthiazol-2-yl)-2,5-diphenyltetrazolium bromide (MTT, Sigma) was used to determine the number of viable cells at the time of compound addition and the number of cells remaining after 72 h compound exposure. The number of cells remaining after 72 h was compared to the number of viable cells at the time of compound addition by measuring the absorbance at 570 nm, allowing for the calculation of growth inhibition.
(§2) All concentrations of compounds were tested in triplicate and controls were averaged over 4 wells. IC50 was calculated by plotting the concentration of compound vs the percentage of inhibition in treated wells using GraphPad Prism 5.
(§3) Tables 5 show IC50 values of several compounds of the invention in A549, A431, H1299, and H1975 human cancer cells. A549 cells have a mutation on KRAS, H3255 cells have L858R mutation, and H1975 cells have double EGFR mutations (L858R/T790M). The scale utilized in Table 5 is as follows: +++ less than 100 nM; ++ between 100 nM and 500 nM; and + greater than 500 nM.

[2] = target: T1, BTK (Homo sapiens, UniProt Q06187); assay: Z'-LYTE kinase inhibition assay (Invitrogen), BTK; assay type: biochemical; conditions: for inhibition at 0.1 µM: compound at 100 nM, [ATP] = Km
T1 construct: purchased Invitrogen
T1 sequence (Q06187 whole entry): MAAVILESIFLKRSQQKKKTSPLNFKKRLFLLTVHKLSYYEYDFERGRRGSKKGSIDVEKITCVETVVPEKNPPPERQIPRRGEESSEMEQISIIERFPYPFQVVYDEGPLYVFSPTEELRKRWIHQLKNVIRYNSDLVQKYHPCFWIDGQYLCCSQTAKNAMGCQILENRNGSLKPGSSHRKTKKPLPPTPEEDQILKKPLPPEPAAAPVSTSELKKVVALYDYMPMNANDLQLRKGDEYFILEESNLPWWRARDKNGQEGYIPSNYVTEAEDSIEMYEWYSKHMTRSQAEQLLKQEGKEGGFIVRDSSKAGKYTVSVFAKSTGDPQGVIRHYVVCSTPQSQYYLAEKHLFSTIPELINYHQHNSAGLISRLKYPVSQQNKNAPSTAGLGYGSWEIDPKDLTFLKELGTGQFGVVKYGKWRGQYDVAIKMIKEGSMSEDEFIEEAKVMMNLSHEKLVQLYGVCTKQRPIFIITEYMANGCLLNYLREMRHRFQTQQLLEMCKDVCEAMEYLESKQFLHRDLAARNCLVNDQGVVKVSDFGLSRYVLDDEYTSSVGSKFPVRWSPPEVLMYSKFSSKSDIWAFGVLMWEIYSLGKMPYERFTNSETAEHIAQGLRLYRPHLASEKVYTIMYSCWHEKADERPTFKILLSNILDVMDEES
Description: (§4) Inhibitory activities of compounds against BTK, EGFR and EGFR mutants (EGFR L858R/T790M) were measured by Invitrogen using Z′-LYTE® Method as briefly described in the following.
(§5) Test Compounds are screened in 1% DMSO (final) in the well. For 10 point titrations, 3-fold serial dilutions are conducted from the starting concentration. All ATP Solutions are diluted to a 4× working concentration in Kinase Buffer (50 mM HEPES pH 7.5, 0.01% BRIJ-35, 10 mM MgCl2, 1 mM EGTA). Peptide/Kinase Mixtures are diluted to a 2× working concentration in the appropriate Kinase Buffers as described below.
(v) Peptide/Kinase Mixtures for measurement of BTK:
The 2×BTK/Tyr 01 mixture is prepared in 50 mM HEPES pH 7.5, 0.01% BRIJ-35, 10 mM MgCl2, 1 mM EGTA. The final 10 μL Kinase Reaction consists of 1.04-10.4 ng BTK and 2 μM Tyr 01 in 50 mM HEPES pH 7.5, 0.01% BRIJ-35, 10 mM MgCl2, 1 mM EGTA. After the 1 hour Kinase Reaction incubation, 5 μL of a 1:256 dilution of Development Reagent B is added.
(§6) Reaction starts by 30-second shaking of mixture consisting of 2.5 μL 4× test compound, 5 μL 2× kinase reaction mixture and 2.5 μL 4×ATP Solution on Bar-coded Corning, low volume NBS, black 384-well plate (Corning Cat. #3676). Then the mixture is incubated for 60-minute at room temperature for the kinase reaction, followed by addition of 5 μL of a 1:1024 dilution of development reagent A and 30-second plate shake. The mixture is then incubated for another 60-minute at room temperature for development reaction. Finally fluorescence is read by plate reader. […] The scale utilized in Tables 2 and 3 is as follows: ++ more than 50% inhibition and + less than 50% inhibition.
(§7) To determine IC50 of a compound against EGFR or EGFR mutants, a series of concentrations of the compound were tested for the inhibition. IC50 was calculated by plotting the concentration of compound vs the percentage of inhibition in treated wells using GraphPad Prism 5. […] The scale utilized in Table 4 is as follows: ++ less than 100 nM and + greater than 100 nM.

[3] = tested on: H1975 cells; assay: MTT cell growth inhibition assay, H1975; assay type: cell-based; conditions: Homo sapiens, NCI-H1975, H1975 cells (EGFR L858R/T790M), 72 h
Description: as §1, §2, §3

[4] = target: T2, EGFR (ErbB1) (Homo sapiens, UniProt P00533); assay: Z'-LYTE kinase inhibition assay (Invitrogen), EGFR; assay type: biochemical; conditions: for inhibition at 0.1 µM: compound at 100 nM, [ATP] = Km
T2 construct: purchased Invitrogen
T2 sequence (P00533 25-1210): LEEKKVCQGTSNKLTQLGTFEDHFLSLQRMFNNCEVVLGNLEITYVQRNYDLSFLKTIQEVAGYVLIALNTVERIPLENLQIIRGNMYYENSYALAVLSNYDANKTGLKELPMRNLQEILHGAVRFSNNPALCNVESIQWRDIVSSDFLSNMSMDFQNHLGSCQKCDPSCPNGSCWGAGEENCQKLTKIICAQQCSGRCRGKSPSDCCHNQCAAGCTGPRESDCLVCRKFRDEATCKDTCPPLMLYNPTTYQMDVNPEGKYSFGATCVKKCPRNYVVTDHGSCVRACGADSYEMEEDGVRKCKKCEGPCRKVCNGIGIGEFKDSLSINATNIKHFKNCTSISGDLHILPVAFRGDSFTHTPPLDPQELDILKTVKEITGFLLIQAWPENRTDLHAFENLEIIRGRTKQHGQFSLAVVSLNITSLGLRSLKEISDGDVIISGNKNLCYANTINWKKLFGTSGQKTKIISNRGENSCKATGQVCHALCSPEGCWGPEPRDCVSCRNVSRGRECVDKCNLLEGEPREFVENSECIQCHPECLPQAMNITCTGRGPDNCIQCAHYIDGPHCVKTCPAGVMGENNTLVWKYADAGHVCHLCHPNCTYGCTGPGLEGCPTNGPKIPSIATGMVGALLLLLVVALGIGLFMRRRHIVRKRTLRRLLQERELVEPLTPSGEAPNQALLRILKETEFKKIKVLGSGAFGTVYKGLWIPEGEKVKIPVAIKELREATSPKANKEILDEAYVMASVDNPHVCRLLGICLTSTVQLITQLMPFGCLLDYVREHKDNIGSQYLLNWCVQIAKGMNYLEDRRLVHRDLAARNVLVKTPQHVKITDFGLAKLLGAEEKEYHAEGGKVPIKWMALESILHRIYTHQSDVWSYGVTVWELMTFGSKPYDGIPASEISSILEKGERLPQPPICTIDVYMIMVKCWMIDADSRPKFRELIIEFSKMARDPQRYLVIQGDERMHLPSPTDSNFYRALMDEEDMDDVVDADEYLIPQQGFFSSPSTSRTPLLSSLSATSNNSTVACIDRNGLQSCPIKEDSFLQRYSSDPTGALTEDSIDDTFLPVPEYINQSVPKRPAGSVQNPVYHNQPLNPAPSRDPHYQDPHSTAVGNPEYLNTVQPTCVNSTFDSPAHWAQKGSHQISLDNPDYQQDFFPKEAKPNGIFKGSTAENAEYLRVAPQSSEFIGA
Description: as §4, §5
(i) Peptide/Kinase Mixtures for measurement of EGFR (ErbB1):
The 2×EGFR (ErbB1)/Tyr 04 mixture is prepared in 50 mM HEPES pH 7.5, 0.01% BRIJ-35, 10 mM MgCl2, 4 mM MnCl2, 1 mM EGTA, 2 mMDTT. The final 10 μL Kinase Reaction consists of 1.1-5.25 ng EGFR (ErbB1) and 2 μM Tyr 04 in 50 mM HEPES pH 7.5, 0.01% BRIJ-35, 10 mM MgCl2, 2 mM MnCl2, 1 mM EGTA, 1 mM DTT. After the 1 hour Kinase Reaction incubation, 5 μL of a 1:64 dilution of DevelopmentReagent B is added.
as §6, §7

[5] = target: T3, EGFR (ErbB1) T790M L858R (Homo sapiens, UniProt P00533, L858R/T790M); assay: Z'-LYTE kinase inhibition assay (Invitrogen), EGFR L858R/T790M; assay type: biochemical; conditions: for inhibition at 0.1 µM: compound at 100 nM, [ATP] = Km
T3 construct: purchased Invitrogen
T3 sequence (P00533 25-1210 T790M/L858R): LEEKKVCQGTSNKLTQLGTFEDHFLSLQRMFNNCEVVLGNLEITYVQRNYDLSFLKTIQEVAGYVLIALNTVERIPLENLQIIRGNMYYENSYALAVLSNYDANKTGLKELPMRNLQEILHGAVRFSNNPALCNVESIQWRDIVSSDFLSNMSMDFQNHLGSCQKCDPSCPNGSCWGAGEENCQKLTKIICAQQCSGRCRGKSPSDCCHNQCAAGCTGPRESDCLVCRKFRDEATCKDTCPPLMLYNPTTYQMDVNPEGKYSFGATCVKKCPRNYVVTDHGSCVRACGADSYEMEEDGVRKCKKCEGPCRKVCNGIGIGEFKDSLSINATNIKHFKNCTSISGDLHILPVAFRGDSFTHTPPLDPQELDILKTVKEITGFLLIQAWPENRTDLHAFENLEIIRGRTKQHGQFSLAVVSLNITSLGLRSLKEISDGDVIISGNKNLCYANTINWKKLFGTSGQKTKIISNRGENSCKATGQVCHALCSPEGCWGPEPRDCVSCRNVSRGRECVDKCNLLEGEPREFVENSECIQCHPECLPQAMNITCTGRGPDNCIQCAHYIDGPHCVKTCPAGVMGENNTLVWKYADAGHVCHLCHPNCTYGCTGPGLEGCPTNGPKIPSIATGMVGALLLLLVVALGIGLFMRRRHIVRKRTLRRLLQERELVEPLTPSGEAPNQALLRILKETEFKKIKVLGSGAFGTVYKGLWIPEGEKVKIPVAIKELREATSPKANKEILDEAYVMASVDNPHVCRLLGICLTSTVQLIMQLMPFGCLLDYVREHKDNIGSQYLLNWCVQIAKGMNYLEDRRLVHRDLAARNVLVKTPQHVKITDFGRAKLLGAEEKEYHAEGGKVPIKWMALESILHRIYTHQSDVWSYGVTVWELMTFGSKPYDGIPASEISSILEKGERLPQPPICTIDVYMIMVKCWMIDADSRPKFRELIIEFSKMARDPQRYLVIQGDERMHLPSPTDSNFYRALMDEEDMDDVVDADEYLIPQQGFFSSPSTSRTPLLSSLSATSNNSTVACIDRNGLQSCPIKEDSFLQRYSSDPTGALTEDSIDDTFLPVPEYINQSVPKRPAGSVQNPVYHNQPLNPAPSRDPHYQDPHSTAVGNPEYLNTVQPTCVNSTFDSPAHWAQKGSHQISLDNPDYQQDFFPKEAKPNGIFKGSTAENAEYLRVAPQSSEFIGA
Description: as §4, §5
(iv) Peptide/Kinase Mixtures for measurement of EGFR (ErbB1) T790M L858R:
The 2×EGFR (ErbB1) T790M L858R/Tyr 04 mixture is prepared in 50 mM HEPES pH 6.5, 0.01% BRIJ-35, 10 mM MgCl2, 1 mM EGTA, 0.02% NaN3. The final 10 μL Kinase Reaction consists of 0.38-4.22 ng EGFR (ErbB1) T790M L858R and 2 μM Tyr 04 in 50 mM HEPES pH 7.0, 0.01% BRIJ-35, 10 mM MgCl2, 1 mM EGTA, 0.01% NaN3. After the 1 hour Kinase Reaction incubation, 5 μL of a 1:64 dilution of Development Reagent B is added.
as §6, §7

[6] = tested on: A549 cells; assay: MTT cell growth inhibition assay, A549; assay type: cell-based; conditions: Homo sapiens, A549 cells (KRAS mutation), 72 h
Description: as §1, §2, §3

[7] = tested on: A431 cells; assay: MTT cell growth inhibition assay, A431; assay type: cell-based; conditions: Homo sapiens, A-431, 72 h
Description: as §1, §2, §3

[8] = compound at 41 nM, 10 μM of ATP

Structure (SMILES): C=CC(=O)Nc1cc(Nc2ncc3cccc(-c4cccc(Cl)c4)c3n2)ccc1N(C)CCN(C)C [Example C005, N-(5-((8-(3-chlorophenyl)quinazolin-2-yl)amino)-2-((2-(dimethylamino)ethyl)(methyl)amino)phenyl) acrylamide]
- IC50 [1]: < 100 nM
- inhibition at 0.1 µM [2]: > 50%
- IC50 [3]: < 100 nM
- IC50 [4]: > 100 nM
- inhibition at 0.1 µM [4]: > 50%
- IC50 [5]: < 100 nM
- inhibition at 0.1 µM [5]: > 50%
- IC50 [6]: 100 to 500 nM
- IC50 [7]: < 100 nM

Structure (SMILES): C=CC(=O)Nc1cc(Nc2ncc3cccc(-c4cccc(F)c4)c3n2)c(OC)cc1N1CCC(N(C)C)C1 (stereo not shown) [Example C023, N-(2-(3-(dimethylamino)pyrrolidin-1-yl)-5-((8-(3-fluorophenyl)quinazolin-2-yl)amino)-4-methoxyphenyl)acrylamide]
- inhibition at 0.1 µM [2]: > 50%
- IC50 [3]: < 100 nM
- IC50 [6]: > 500 nM
- IC50 [7]: < 100 nM

Structure (SMILES): C=CC(=O)Nc1cc(Nc2ncc3cccc(-c4cncc(F)c4)c3n2)ccc1N(C)CCN(C)C [Example C022, N-(2-((2-(dimethylamino)ethyl)(methyl)amino)-5-((8-(5-fluoropyridin-3-yl)quinazolin-2-yl)amino)phenyl)acrylamide]
- inhibition at 0.1 µM [2]: > 50%
- IC50 [3]: < 100 nM
- inhibition at 0.1 µM [4]: < 50%
- inhibition at 0.1 µM [5]: > 50%
- IC50 [6]: 100 to 500 nM
- IC50 [7]: < 100 nM

Structure (SMILES): C=CC(=O)Nc1cc(Nc2ncc3cccc(-c4cccc(F)c4)c3n2)ccc1N1CC(N(C)C)C1 [Example C025, N-(2-(3-(dimethylamino)azetidin-1-yl)-5-((8-(3-fluorophenyl)quinazolin-2-yl)amino)phenyl)acrylamide]
- inhibition at 0.1 µM [2]: > 50%
- IC50 [3]: < 100 nM
- IC50 [6]: 100 to 500 nM
- IC50 [7]: < 100 nM

Structure (SMILES): C=CC(=O)Nc1cc(Nc2ncc3cccc(-c4ccccc4Cl)c3n2)ccc1N(C)CCN(C)C [Example C008, N-(5-((8-(2-chlorophenyl)quinazolin-2-yl)amino)-2-((2-(dimethylamino)ethyl)(methyl)amino)phenyl) acrylamide]
- inhibition at 0.041 µM [2, 8]: > 50%
- inhibition at 0.1 µM [2]: > 50%
- IC50 [3]: 100 to 500 nM
- inhibition at 0.041 µM [4, 8]: < 50%
- inhibition at 0.1 µM [4]: < 50%
- inhibition at 0.0137 µM ([5]; compound at 13.7 nM, 10 μM of ATP): > 50%
- inhibition at 0.1 µM [5]: < 50%
- IC50 [6]: 100 to 500 nM

Structure (SMILES): C=CC(=O)Nc1cc(Nc2ncc3cccc(Cl)c3n2)ccc1N(C)CCN(C)C [Example C002, N-(5-((8-chloroquinazolin-2-yl)amino)-2-((2-(dimethylamino)ethyl)(methyl)amino)phenyl) acrylamide]
- IC50 [2]: > 100 nM
- IC50 [3]: < 100 nM
- IC50 [4]: > 100 nM
- IC50 [5]: > 100 nM
- IC50 [6]: > 500 nM
- IC50 [7]: 100 to 500 nM
